{"source": "patent US8470769B2", "about": "“Method of treatment of bacterial infection by administration of poly-lysine” (priority 2004, dated 2013)", "key": {"[1]": {"test_system": "Trichophyton rubrum (NCPF 335)", "assay": "Fungal growth sensitivity assay (absorbance at 540 nm)", "format": "cell-based", "protocol": "(§1) Trichophyton interdigitale (NCPF 117) and Trichophyton rubrum (NCPF 335) strains were obtained from the National Collection of Pathogenic Fungi, Bristol and maintained in culture by transfer at approximately monthly intervals on slopes of Sabuoraud's agar and Potato Dextrose Agar at 30° C. Candida albicans strain 3179 (obtained from the National Collection of Type Cultures [NCTC], Colindale) was maintained in Oxoid Mueller Hinton Broth at 37° C. Streptococcus pyogenes strain 8198, Staphylococcus aureus strain 10642 (methicillin-resistant), and E. coli 0157 strain 12900 were obtained from the NCTC, Colindale and maintained in Oxoid Mueller Hinton Broth at 37° C.\nTo determine the sensitivity of fungal strains to each of the test peptides, their impact on fungal growth was assessed as follows. Suspensions of T. interdigitale and T. rubrum conidia and hyphal fragments were prepared by adding 10 ml of fresh Nutrient Glucose Broth (NGB) (Oxoid Nutrient broth containing 2% w/v glucose) to a slope culture and agitating with a spatula. The resulting conidial/hyphal fragment suspension was filtered through 2 layers of sterile surgical gauze to remove large hyphal mats and pieces of agar. 20 μl of this suspension (absorbance at 540 nm around 0.1, corresponding to approx 10^6 propagules/ml) was inoculated into each well of sterile, 96 well microtitre plates to which a total volume 80 μl of nutrient medium (NGB) and the appropriate amount of peptide solution had previously been added. Control wells were those in which the final assay volume of 100 μl was made up with NGB medium alone, plus solvent (if applicable and at the same concentration as the peptide samples if so). […]"}, "[2]": {"test_system": "Trichophyton interdigitale (NCPF 117)", "assay": "Fungal growth sensitivity assay (absorbance at 540 nm)", "format": "cell-based", "protocol": "as §1\nTo determine the sensitivity of fungal strains to each of the test peptides, their impact on fungal growth was assessed as follows. Suspensions of T. interdigitale and T. rubrum conidia and hyphal fragments were prepared by adding 10 ml of fresh Nutrient Glucose Broth (NGB) (Oxoid Nutrient broth containing 2% w/v glucose) to a slope culture and agitating with a spatula. The resulting conidial/hyphal fragment suspension was filtered through 2 layers of sterile surgical gauze to remove large hyphal mats and pieces of agar. 20 μl of this suspension (absorbance at 540 nm around 0.1, corresponding to approx 10^6 propagules/ml) was inoculated into each well of sterile, 96 well microtitre plates to which a total volume 80 μl of nutrient medium (NGB) and the appropriate amount of peptide solution had previously been added. Control wells were those in which the final assay volume of 100 μl was made up with NGB medium alone, plus solvent (if applicable and at the same concentration as the peptide samples if so). Fungal growth within the plates was monitored by absorbance at 540 nm in a Microtek plate reader after 24 h, 4 day and 7 day incubations at 30° C."}, "[3]": {"test_system": "Staphylococcus aureus strain 10642 (methicillin-resistant)", "assay": "Bacterial survival assay", "format": "cell-based", "details": "range of concentrations; 3 h of exposure; dose dependent (FIG. 7)", "protocol": "(§2) Streptococcus pyogenes strain 8198, Staphylococcus aureus strain 10642 (methicillin-resistant), and E. coli 0157 strain 12900 (all obtained from the NCTC, Colindale) were grown for 18-24 h then stored at 4° C. prior to use. Fresh cultures grown overnight were centrifuged at 2000×g for 10 min and washed with fresh Mueller Hinton Broth. Sensitivity to each of the four peptides was assayed as per C. albicans described above. For E. coli and S. aureus, the starting number of cells for the peptide sensitivity assay was 10^8/ml and the medium used for enumeration was Nutrient Agar (Oxoid). Str. pyogenes grew less well than the other strains on Mueller Hinton agar and so the starting number of cells for these assays was lower than that for the other strains, at 10^6/ml. Str. pyogenes survival was determined using Oxoid Tryptose Soya Agar in place of Nutrient Agar.\n(§3) Three clinically relevant bacterial pathogens, E. coli 0157, methicillin-resistant Staphylococcus aureus (MRSA) and Streptococcus pyogenes, were exposed, as described previously in the materials and methods section, to a range of concentrations of peptide 4. After a period of 3 h, samples of each bacterial culture were transferred to appropriate solid phase growth media plates and the numbers of viable colonies in control (growth medium only) and treated (growth medium containing peptide 4) samples assessed after 18-24 h."}, "[4]": {"test_system": "Streptococcus pyogenes strain 8198", "assay": "Bacterial survival assay", "format": "cell-based", "details": "range of concentrations; 3 h of exposure; dose dependent (FIG. 7)", "protocol": "as §2, §3"}, "[5]": {"test_system": "E. coli 0157 strain 12900", "assay": "Bacterial survival assay", "format": "cell-based, Escherichia coli", "details": "range of concentrations; 3 h of exposure; dose dependent (FIG. 7)", "protocol": "as §2, §3"}, "[6]": {"test_system": "Candida albicans strain 3179", "assay": "Candida albicans growth by optical density (absorbance at 540 nm)", "format": "cell-based", "details": "50 or 100 and 300 or 500 μg/ml peptide; 24 h and 48 h; time and dose-dependent (FIG. 4)", "protocol": "as §1\nThe yeast Candida albicans was cultured, as described previously in the materials and methods section, in growth medium alone (control cultures) or in growth medium containing 50 μg/ml or 100 μg/ml and 300 μg/ml or 500 μg/ml of peptide 1, 2, 3 or 4. Growth of C. albicans was assessed by measuring optical density (absorbance at 540 nm) after 24 h (FIG. 4a) and 48 h (FIG. 4b) in culture. […] In a separate experiment, C. albicans survival was assessed after 18-24 h in cultures grown in medium alone (controls) or those including a range of concentrations of peptide 4 spanning 1 μg/ml to 1000 μg/ml (FIG. 6)."}, "[7]": {"test_system": "Candida albicans strain 3179", "assay": "Candida albicans survival assay (viable counts)", "format": "cell-based", "details": "for Survival of Candida albicans, antifungal activity compared with poly-L-lysine: 100 μg/ml, 1 mg/ml and 10 mg/ml, 2 hours at 37° C. (FIG. 19)", "protocol": "as §1\nTo determine the sensitivity of fungal strains to each of the test peptides, their impact on Candida survival was assessed as follows. C. albicans cultures were grown for 18-24 h then stored at 4° C. prior to use. Fresh cultures grown overnight were centrifuged at 2000×g for 10 min and washed with fresh Mueller Hinton Broth, adjusting the number of viable cells to between 5×10^6 and 1×10^7/ml. Assay buffer was prepared by adding 100 μl of NGB medium to 6.9 ml of 10 mM sodium phosphate buffer, pH 7.7. 35 μl of assay buffer with or without a range of peptide concentrations was added to a sterile polypropylene screw-capped vial and 15 μl of the Candida albicans inoculum described above was added. The vials were incubated at 37° C. in a water bath for 2 h, and the number of Candida spp. surviving was determined by serial dilution in sterile phosphate buffered saline (PBS) and plating out onto 9 cm Petri dishes containing Oxoid Sabouraud's Agar (20 ml). Counts were made after incubation of these plates at 37° C. for 18-24 h."}, "[8]": {"details": "no acetic acid, 96 hours at 30° C. (FIG. 13)"}, "[9]": {"details": "3 concentrations of Peptide 4, no acetic acid, 96 hours at 30° C. (FIG. 9)"}, "[10]": {"details": "100 μg/ml, no acetic acid, 96 hours at 30° C. (FIG. 15)"}, "[11]": {"details": "3 concentrations, no acetic acid, 96 hours at 30° C. (FIG. 14)"}}}
{"compound": "Poly-L-lysine-HCl 15,000-30,000Da (100-200aa) [pK100-200]", "values": [{"measurement": "Growth of T. rubrum", "setting": "[1]; [8]", "result": "inhibited the growth"}, {"measurement": "Growth of T. interdigitale", "setting": "[2]; between 1 mg/ml and 50 μg/ml, no acetic acid, 96 hours at 30° C. (FIG. 12)", "result": "inhibited growth at all concentrations tested"}]}
{"compound": "L-Arginine trimer [RRR]", "values": [{"measurement": "Activity against T. rubrum compared among the trimers", "setting": "[1]; 2 mg/ml of each trimer, 96 hours at 30° C. (FIG. 16)", "result": "most active peptide"}, {"measurement": "Growth of T. rubrum (OD, percentage of the growth in the untreated culture)", "setting": "[1]; 2 mg/ml of trimer, 96 hours at 30° C. (FIG. 16)", "result": "significant reduction in growth"}]}
{"compound": "Peptide 4: peptide of FIG. 1 (SEQ ID NO: 10); highly cationic peptide comprising lysine and arginine residues (KRKRKRKCRKRKRRCRKRKCKRKRKRKRKCRKRKRKCCRRKK)", "values": [{"measurement": "Survival of methicillin-resistant Staphylococcus aureus (MRSA) (viable colonies)", "setting": "[3]", "result": "significantly inhibited survival"}, {"measurement": "Survival of Streptococcus pyogenes (viable colonies)", "setting": "[4]", "result": "significantly inhibited survival"}, {"measurement": "Survival of E. coli 0157 (viable colonies)", "setting": "[5]", "result": "significantly inhibited survival"}, {"measurement": "Growth of C. albicans (optical density, absorbance at 540 nm)", "setting": "[6]", "result": "significantly inhibited C. albicans growth"}, {"measurement": "Growth of T. rubrum (optical density, absorbance at 540 nm)", "setting": "[1]; 50 μg/ml peptide, day 4 and 7, 0.5% acetic acid as solvent, compared to un-treated control (FIG. 3)", "result": "significantly inhibited"}, {"measurement": "Growth of T. rubrum (OD)", "setting": "[1]; 1 mg/ml peptide 4 alone, 3 days in culture (FIG. 8)", "result": "inhibited T. rubrum growth"}, {"measurement": "Growth of T. rubrum (OD)", "setting": "[1]; [9]", "result": "inhibitory effect"}, {"measurement": "Growth of T. interdigitale (optical density, absorbance at 540 nm)", "setting": "[2]; 50 μg/ml peptide, day 4 and 7, 0.5% acetic acid as solvent, compared to un-treated control (FIG. 2)", "result": "significantly inhibited"}, {"measurement": "Growth of T. interdigitale (OD)", "setting": "[2]; [9]", "result": "inhibitory effect"}, {"measurement": "Growth of T. interdigitale (OD)", "setting": "[2]; 7 days, no acetic acid solvent (FIG. 10)", "result": "significantly inhibit fungal growth"}, {"measurement": "Effect of salt concentrations on antifungal activity towards T. interdigitale", "setting": "[2]; Peptide 4 1.2 mg/ml, NaCl 100 mM to 500 mM, no acetic acid, 96 h at 30° C. (FIG. 17)", "result": "not affected"}, {"measurement": "Peptide concentration at which growth of T. interdigitale was inhibited", "setting": "[2]; no acetic acid, 96 hours at 30° C. (FIG. 9)", "result": 0.55, "unit": "mg/mL"}, {"measurement": "Survival of C. albicans (viability counts)", "setting": "[7]; 1 μg/ml to 1000 μg/ml, after 24 h in culture (FIG. 6)", "result": "decreased in a dose-dependent manner"}, {"measurement": "Survival of C. albicans at high salt concentrations", "setting": "[7]; range of Peptide 4 concentrations, two concentrations of NaCl, 2 h incubation at 37° C. (FIG. 18)", "result": "Significant killing activity"}, {"measurement": "Effect of salts on fungicidal activity against C. albicans", "setting": "[7]; two concentrations of NaCl, 2 h incubation at 37° C. (FIG. 18)", "result": "not inhibited by salts"}]}
{"compound": "Poly-L-arginine-HCl 5,000-15,000 (28-86aa) [pR28-86]", "values": [{"measurement": "Growth of T. rubrum (OD)", "setting": "[1]; [10]", "result": "loss of activity"}, {"measurement": "Growth of T. rubrum", "setting": "[1]; 1 mg/ml, no acetic acid, 96 hours at 30° C. (FIG. 13)", "result": "totally inhibiting growth"}, {"measurement": "Concentration down to which active against T. rubrum", "setting": "[1]; [11]", "result": 0.55, "unit": "mg/mL"}, {"measurement": "Inhibitory impact against T. rubrum compared with poly-L-Lysine", "setting": "[1]; equivalent doses, no acetic acid, 96 hours at 30° C. (FIG. 13)", "result": "more active"}, {"measurement": "Growth of T. rubrum", "setting": "[1]; [8]", "result": "inhibited the growth"}, {"measurement": "Growth of T. interdigitale (OD)", "setting": "[2]; [10]", "result": "loss of activity"}, {"measurement": "Concentration down to which active against T. interdigitale", "setting": "[2]; [11]", "result": 0.55, "unit": "mg/mL"}, {"measurement": "Survival of Candida albicans, antifungal activity compared with poly-L-lysine", "setting": "[7]", "result": "increased antifungal activity"}]}
{"compound": "Poly-D-lysine-HBr 4,000-15,000Da (27-100aa) [pKd27-100]", "values": [{"measurement": "Survival of Candida albicans, antifungal activity compared with poly-L-lysine", "setting": "[7]", "result": "very similar antifungal activity to the poly-L-lysine"}]}
{"compound": "CC(=O)O", "note": "[acetic acid]", "values": [{"measurement": "Growth of T. rubrum (OD)", "setting": "[1]; 0.01% acetic acid alone, 3 days in culture (FIG. 8)", "result": "no significant effect"}, {"measurement": "Growth of T. interdigitale", "setting": "[2]; 0.5% acetic acid, 96 hours at 30° C. (FIG. 11)", "result": "significant effect"}]}
